Assay results reported in US20160002180A1, “ANTIVIRAL COMPOUNDS” (priority 2013, published 2016).

Experiments:
Test in all cases: microbe, parasite or virus in culture
Type in all cases: cell-based
[1] = test system: HCVpp GT-1a (pseudotyped HCV GT1a particles, E1 and E2 envelope proteins of GT1a H77 strain); settings: Hepatitis C virus, 72 h, read-out: HCVpp GT-1a (EC50, μM)
[2] = test system: HCVpp GT-1b (pseudotyped HCV GT1b particles, E1 and E2 envelope proteins of GT1b Con1 strain); settings: Hepatitis C virus, 72 h, read-out: HCVpp GT-1b (EC50, μM)
[3] = test system: VSVpp (pseudotyped VSV G particles); settings: Vesicular stomatitis virus, 72 h, read-out: VSVpp (EC50, μM)

Row | Structure (SMILES) | EC50 [1] | EC50 [2] | EC50 [3]
1 | Fc1c(Cl)cc(Nc2nc[nH]n2)cc1Cl [Compound 28, (3,5-Dichloro-4-fluoro-phenyl)-(1H-[1,2,4]triazol-3-yl)-amine] | 0.477 µM | 3.77 µM | 84.1 µM
2 | Nc1cccc(Nc2ncn(Cc3ccccc3)n2)c1 [Compound 29, N-(1-Benzyl-1H-[1,2,4]triazol-3-yl)-benzene-1,3-diamine] | 95 µM | 87.2 µM | 100 µM
3 | COc1n[nH]c(Nc2cc(Cl)cc(Cl)c2)n1 [Compound 8, (3,5-Dichloro-phenyl)-(5-methoxy-2H-[1,2,4]triazol-3-yl)-amine] | 15.9 µM | 52.6 µM | 100 µM
4 | CN(C)c1nc(Nc2cc(Cl)cc(Cl)c2)n[nH]1 [Compound 15, N^3-(3,5-Dichloro-phenyl)-N^5,N^5-dimethyl-1H-[1,2,4]triazole-3,5-diamine] | 24.8 µM | – | 100 µM
5 | COc1n[nH]c(Nc2cc(Cl)nc(Cl)c2)n1 [Compound 9, (2,6-Dichloro-pyridin-4-yl)-(5-methoxy-2H-[1,2,4]triazol-3-yl)-amine] | 13.2 µM | 45.3 µM | 98 µM
6 | CS(=O)(=O)c1n[nH]c(Nc2cc(Cl)cc(Cl)c2)n1 [Compound 13, (3,5-Dichloro-phenyl)-(5-methanesulfonyl-2H-[1,2,4]triazol-3-yl)-amine] | 100 µM | – | 100 µM
7 | N#Cc1c(Cl)cc(Nc2ncn[nH]2)cc1Cl [Compound 20, 2,6-Dichloro-4-(2H-[1,2,4]triazol-3-ylamino)-benzonitrile] | 0.121 µM | 1.66 µM | 100 µM
8 | CC(C)Cc1nc(Nc2cc(Cl)cc(Cl)c2)n[nH]1 [Compound 33, (3,5-Dichloro-phenyl)-(5-isobutyl-1H-[1,2,4]triazol-3-yl)-amine] | 1.26 µM | 61.7 µM | 100 µM
9 | Clc1cc(Cl)cc(Nc2nc(Br)n[nH]2)c1 [Compound 7, (5-Bromo-2H-[1,2,4]triazol-3-yl)-(3,5-dichloro-phenyl)-amine] | 16.5 µM | 20.8 µM | 28.2 µM
10 | Clc1cc(Cl)cc(Nc2nc(Cl)n[nH]2)c1 [Compound 12, (5-Chloro-2H-[1,2,4]triazol-3-yl)-(3,5-dichloro-phenyl)-amine] | 13.8 µM | – | 14 µM
11 | COc1n[nH]c(Nc2ccc(C#N)c(C(F)(F)F)c2)n1 [Compound 10, 4-(5-Methoxy-2H-[1,2,4]triazol-3-ylamino)-2-trifluoromethyl-benzonitrile] | 7.53 µM | 7.83 µM | 8.3 µM
12 | CN(C)c1nc(Nc2cc(Cl)c(Br)c(Cl)c2)n[nH]1 [Compound 16, N^3-(4-Bromo-3,5-dichloro-phenyl)-N^5,N^5-dimethyl-1H-[1,2,4]triazole-3,5-diamine] | 1.58 µM | – | 43.1 µM
13 | CS(=O)(=O)c1n[nH]c(Nc2cc(Cl)c(Br)c(Cl)c2)n1 [Compound 14, (4-Bromo-3,5-dichloro-phenyl)-(5-methanesulfonyl-2H-[1,2,4]triazol-3-yl)-amine] | 100 µM | – | 100 µM
14 | FC(F)(F)c1nc(Nc2cc(Cl)cc(Cl)c2)n[nH]1 [Compound 22, (3,5-Dichloro-phenyl)-(5-trifluoromethyl-1H-[1,2,4]triazol-3-yl)-amine] | 5.5 µM | 5.63 µM | 6.7 µM
15 | CNc1nc(Nc2ccc(C#N)c(C(F)(F)F)c2)n[nH]1 [Compound 21, 4-(5-Methylamino-1H-[1,2,4]triazol-3-ylamino)-2-trifluoromethyl-benzonitrile] | 1.26 µM | 5.01 µM | 24.9 µM
16 | NCc1nc(Nc2cc(Cl)cc(Cl)c2)n[nH]1 [Compound 3, (5-Aminomethyl-1H-[1,2,4]triazol-3-yl)-(3,5-dichloro-phenyl)-amine] | – | 100 µM | 100 µM
17 | COCc1n[nH]c(Nc2cc(Cl)nc(Cl)c2)n1 [Compound 6, (2,6-Dichloro-pyridin-4-yl)-(5-methoxymethyl-2H-[1,2,4]triazol-3-yl)-amine] | 4.59 µM | 35.5 µM | 100 µM

Row | Structure (SMILES) | EC50 [1] | EC50 [2] | EC50 [3]
18 | Clc1cc(Cl)cc(Nc2ncn(Cc3ccccc3)n2)c1 [Compound 23, (1-Benzyl-1H-[1,2,4]triazol-3-yl)-(3,5-dichloro-phenyl)-amine] | 28.9 µM | 53 µM | 46.5 µM
19 | Clc1cc(Nc2ncn[nH]2)cc(Cl)c1Br [Compound 18, (4-Bromo-3,5-dichloro-phenyl)-(2H-[1,2,4]triazol-3-yl)-amine] | 0.252 µM | 2.52 µM | 22.4 µM
20 | Cc1nc(Nc2cc(Cl)cc(Cl)c2)n[nH]1 [Compound 1, (3,5-Dichloro-phenyl)-(5-methyl-1H-[1,2,4]triazol-3-yl)-amine] | 1.99 µM | 6.25 µM | 100 µM
21 | Clc1cc(Cl)cc(Nc2nc[nH]n2)c1 [Compound 25, (3,5-Dichloro-phenyl)-(1H-[1,2,4]triazol-3-yl)-amine] | 1.06 µM | 5.17 µM | 97 µM
22 | Fc1c(Cl)cc(Nc2ncnn2Cc2ccccc2)cc1Cl [Compound 26, (2-Benzyl-2H-[1,2,4]triazol-3-yl)-(3,5-dichloro-4-fluoro-phenyl)-amine] | 16.2 µM | 27.1 µM | 17.5 µM
23 | CC(C)c1nc(Nc2cc(Cl)cc(Cl)c2)n[nH]1 [Compound 32, (3,5-Dichloro-phenyl)-(5-isopropyl-1H-[1,2,4]triazol-3-yl)-amine] | 22.1 µM | – | 33.8 µM
24 | Fc1c(Cl)cc(Nc2ncn(Cc3ccccc3)n2)cc1Cl [Compound 27, (1-Benzyl-1H-[1,2,4]triazol-3-yl)-(3,5-dichloro-4-fluoro-phenyl)-amine] | 6.13 µM | 8.91 µM | 9.11 µM
25 | Clc1cc(Nc2ncn[nH]2)cc(Cl)c1Cl [Compound 17, (2H-[1,2,4]Triazol-3-yl)-(3,4,5-trichloro-phenyl)-amine] | 0.392 µM | – | 28.2 µM
26 | Clc1cc(Nc2nc[nH]n2)cc(Cl)n1 [Compound 30, (2,6-Dichloro-pyridin-4-yl)-(1H-[1,2,4]triazol-3-yl)-amine] | 1.06 µM | – | 100 µM
27 | Fc1c(Cl)cc(Nc2n[nH]c(N3CCOCC3)n2)cc1Cl [Compound 31, (3,5-Dichloro-4-fluoro-phenyl)-(5-morpholin-4-yl-1H-[1,2,4]triazol-3-yl)-amine] | 25.8 µM | – | 29.9 µM
28 | CNc1nc(Nc2cc(Cl)cc(Cl)c2)n[nH]1 [Compound 19, N^3-(3,5-Dichloro-phenyl)-N^5-methyl-1H-[1,2,4]triazole-3,5-diamine] | 3.41 µM | – | 100 µM
29 | Clc1cc(Cl)cc(Nc2n[nH]c(-c3ccccc3)n2)c1 [Compound 2, (3,5-Dichloro-phenyl)-(5-phenyl-1H-[1,2,4]triazol-3-yl)-amine] | 26.7 µM | 27.5 µM | 30.1 µM
30 | COCc1n[nH]c(Nc2cc(Cl)cc(Cl)c2)n1 [Compound 5, (3,5-Dichloro-phenyl)-(5-methoxymethyl-2H-[1,2,4]triazol-3-yl)-amine] | 4.13 µM | 24.2 µM | 100 µM
31 | Fc1n[nH]c(Nc2cc(Cl)cc(Cl)c2)n1 [Compound 4, (3,5-Dichloro-phenyl)-(5-fluoro-2H-[1,2,4]triazol-3-yl)-amine] | 28.7 µM | 30.1 µM | 30.9 µM
32 | COc1n[nH]c(Nc2cc(Cl)c(Br)c(Cl)c2)n1 [Compound 11, (4-Bromo-3,5-dichloro-phenyl)-(5-methoxy-2H-[1,2,4]triazol-3-yl)-amine] | 2.1 µM | 7.23 µM | 12.7 µM
33 | Clc1cc(Cl)cc(Nc2ncnn2Cc2ccccc2)c1 [Compound 24, (2-Benzyl-2H-[1,2,4]triazol-3-yl)-(3,5-dichloro-phenyl)-amine] | 27.1 µM | 32.5 µM | 34.9 µM
34 | Clc1cc(Cl)cc(Nc2n[nH]c(Cc3ccccc3)n2)c1 [Compound 34, (5-Benzyl-1H-[1,2,4]triazol-3-yl)-(3,5-dichloro-phenyl)-amine] | 0.785 µM | 13.5 µM | 38.9 µM
